Measurements from patent US20250101062A1, “ANTIMICROBIAL PEPTIDES” (Board of Regents of the University of Nebraska, priority 2023, published 2025).
Where no end group is shown, it is not given here.

Columns and labels:
MRSA USA300 [1] = assay: Membrane depolarization (DiBAC4(3)); type: cell-based, Staphylococcus aureus
Method: An overnight culture of MRSA USA300 was inoculated into TSB and grown to an exponential phase. Bacteria were washed with 1×PBS, resuspended in twice the volume of 1×PBS containing 25 mM glucose, and incubated at 37° C. for 15 minutes. Then, 500 nM (final concentration) of DiBAC4 (3) bis(1, 3-dibutylbarbituric acid) trimethine oxonol (ANASPEC, CA) was added, and the mixture was vortexed gently. Aliquots of 90 μL of the energized bacteria solution were loaded into the 96-well plates (Corning COSTAR, AZ) and placed in a FLUOstar® Omega microplate reader (BMG LABTECH, NC). Fluorescence was read for 20 minutes at excitation and emission wavelengths of 485 and 520 nm, respectively. Then, 10 μL of peptide solutions was added, and fluorescence readings were recorded for 40 minutes. Triton® X-100 (0.1%) was used as the positive control.
Bacterial membrane depolarization was conducted (Marks, et al. (2013) PLoS One 8(5):e63158). […] Aliquots of 90 μL of the energized bacteria solution were loaded to the 96 well plates (Corning COSTAR, AZ) and placed in a FLUOstar® Omega microplate reader (BMG LABTECH, NC). Fluorescence was read for 20 minutes at excitation and emission wavelengths of 485 nm and 520 nm, respectively. Then, 10 μL of peptide solutions was added and fluorescence readings were recorded for 40 minutes. […]

E. coli E423-17 biofilms = assay: Disruption of preformed biofilms in vitro (XTT); type: cell-based, Escherichia coli; settings: for effect on biofilms: 24 h preformed biofilm
Method: (§1) Effects of Peptides on Established Biofilms in Vitro. Bacteria (S. aureus USA300 LAC and E. coli E423-17) were grown in rich TSB media overnight. A second inoculation was made the next day to reach an exponential phase (OD600˜0.4). Microtiter plates (96 wells, Corning Costar Cat no. 3595), after aliquoting with 180 μL of the culture to each well, were incubated at 37° C. for 24 hours to form biofilms in rich TSB. Media were aspirated post incubation, and the attached biofilms were washed with 1×PBS to remove the planktonic bacteria. […] Biofilms treated with water served as the positive control, while media without bacterial inoculation served as the negative control. Live cells in the biofilms were quantitated using XTT as described above. Absorbance was read at 450 nm (only media with XTT containing wells served as the blank) using a ChroMate™ microtiter plate reader. Percentage biofilm growth for the peptide was plotted by assuming 100% biofilm growth in bacterial control alone. The data were represented as mean±SD; plots were generated using GraphPad prism 7, where * indicates p<0.05, **p<0.01, and ***P<0.001, and ****p<0.0001 (one-way analyses of variance).

[2] = tested on: S. aureus USA300 LAC biofilms; assay: Disruption of preformed biofilms in vitro (XTT); type: cell-based, Staphylococcus aureus
Method: as §1
LL-37 is known to inhibit bacterial biofilms (Overhage, et al. (2008) Infect. Immun., 76:4176-4182). However, it was unable to disrupt preformed MRSA biofilms in rich media (Mishra, et al. (2016) ACS Med. Chem. Lett., 7:117-121). Next, it was determined whether the diluted MHB medium could be useful to detect biofilm-disrupting activity for LL-37 against MRSA. An established procedure (Mishra, et al. (2016) ACS Med. Chem. Lett., 7:117-121; Duplantier, et al. (2013) Front. Immunol., 4:143) was used wherein biofilms were formed and washed as usual to remove planktonic cells. The biofilms were then treated with peptides in 12.5% MHB for 24 hours. Finally, live cells were quantified with XTT (ATCC). FIG. 2 compares the levels of live cells of MRSA in the preformed biofilms after 24 hour treatment. […] Of note is a similar pattern for both peptides in 12.5% MHB treated at various concentrations.
Bacteria (S. aureus USA300 LAC or P. aeruginosa E411-17) were grown up in TSB media overnight. A second inoculation was made the next day to reach an exponential phase (OD600˜0.4). Microtiter plates (96 wells, Corning Costar Cat No. 3595), after aliquoting with 180 μL of the culture to each well, were incubated at 37° C. for 24 hours to form biofilms in rich TSB. Media were aspirated post incubation and the attached biofilms were washed with 1×PBS to remove the planktonic bacteria. […] Biofilms treated with water served as the positive control while media without bacterial inoculation served as the negative control. Live cells in the biofilms were quantitated using the XTT as described above. Absorbance was read at 450 nm (only media with XTT containing wells served as the blank) using a ChroMate® microtiter plate reader. Percentage biofilm growth (the plot legend is antibiofilm activity) for the peptides was plotted by assuming 100% biofilm growth in bacterial control alone. The data were represented as mean±SD, plots were generated using GraphPad prism 7, where * indicates p<0.05, ** p<0.01, and ***P<0.001, and ****p<0.0001 (one-way analyses of variance).

MRSA USA300 [3] = assay: Killing kinetics; type: cell-based, Staphylococcus aureus; settings: 2×MIC
Method: MRSA USA300 was grown to the exponential phase (OD600˜0.3) in MHB. The culture was diluted to OD600 0.001 (˜10^5 CFU/mL). One milliliter of bacterial suspension was then mixed with LL-37mini or daptomycin at 2×MIC and incubated at 37° C. After 15, 30, 60, 90, and 120 minutes of incubation, 50 μL was taken and serially diluted with 1×PBS. Then, 50 μL of the diluted suspension was plated on mannitol salt agar plates (NEOGEN, MI). The plates were incubated overnight at 37° C. for bacterial CFU determination the next day.
For bacterial killing kinetics study, MRSA USA300 and P. aeruginosa E411-17 was grown to the exponential phase (OD600˜0.3) in MHB. The culture was diluted to OD600 0.001 (˜10^5 CFU/mL). One milliliter of bacterial suspension was then mixed with the peptide, colistin or daptomycin at 4×MIC and incubated at 37° C. After 15, 30, 60, 90, and 120 minutes incubation, 50 μL was taken and serially diluted with 1×PBS. Then, 50 μL of the diluted suspension was plated on Mannitol Salt Agar (MRSA USA300) or Cetrimide Agar (P. aeruginosa E411-17) plates (NEOGEN, MI). The plates were incubated overnight at 37° C. for bacterial CFU count the next day.

For CC[C@H](C)[C@H](NC(=O)[C@H](CCCCN)NC(=O)[C@H](CCC(=O)O)NC(=O)[C@H](CCCCN)NC(=O)[C@H](CO)NC(=O)[C@H](CCCCN)NC(=O)[C@H](CCCNC(=N)N)NC(=O)[C@H](Cc1ccccc1)NC(=O)[C@H](Cc1ccccc1)NC(=O)[C@H](CC(=O)O)NC(=O)CNC(=O)[C@H](CC(C)C)NC(=O)[C@@H](N)CC(C)C)C(=O)NCC(=O)N[C@@H](CCCCN)C(=O)N[C@@H](CCC(=O)O)C(=O)N[C@@H](Cc1ccccc1)C(=O)N[C@@H](CCCCN)C(=O)N[C@@H](CCCNC(=N)N)C(=O)N[C@H](C(=O)N[C@H](C(=O)N[C@@H](CCC(N)=O)C(=O)N[C@@H](CCCNC(=N)N)C(=O)N[C@H](C(=O)N[C@@H](CCCCN)C(=O)N[C@@H](CC(=O)O)C(=O)N[C@@H](Cc1ccccc1)C(=O)N[C@@H](CC(C)C)C(=O)N[C@@H](CCCNC(=N)N)C(=O)N[C@@H](CC(N)=O)C(=O)N[C@@H](CC(C)C)C(=O)N[C@H](C(=O)N1CCC[C@H]1C(=O)N[C@@H](CCCNC(=N)N)C(=O)N[C@H](C(=O)N[C@@H](CCC(=O)O)C(=O)N[C@@H](CO)C(=O)O)[C@@H](C)O)C(C)C)[C@@H](C)CC)C(C)C)[C@@H](C)CC [LL-37], the membrane depolarization (MRSA USA300 [1]; Example 2, PBS with glucose) was “most powerful in membrane depolarization”, the effect on biofilms (E. coli E423-17 biofilms; 12.5% MHB) was “dose-dependent antibiofilm effect” and the effect on biofilms (E. coli E423-17 biofilms; 100% MHB) was “subtle effect”. For the same compound, the “peptide concentration showing biofilm disruption” value ([2]; 24 h preformed biofilm, 12.5% MHB) was 32 µM and the antibiofilm activity ([2]; 24 h preformed biofilm, 100% MHB) was “essentially no antibiofilm activity”.

In the case of RRWWRWWR-NH2 [W543], the “time at which CFU was not detected (killing)” value (MRSA USA300 [3]) is reported as 120 min, the membrane depolarization (MRSA USA300 [1]; Example 1, highest concentration tested) is reported as “did not show a clear effect” and the “effect on live cells in biofilms” value (E. coli E423-17 biofilms; 24 hour preformed biofilms, 16 μM) is reported as “almost eliminated”. For the same compound, the “reduction of live bacteria” value (E. coli E423-17 biofilms; 24 hour preformed biofilms, treated at 8 μM) was about 40%, the “effect on preformed biofilms” value ([2]; 48 or 72 hour preformed biofilms) was “Better disruptive effects than daptomycin” and the “effect on preformed biofilms” value ([2]; 24 hours preformed biofilms, 32 μM) was “essentially eliminated”.

CCCCCCCCCC(=O)N[C@@H](Cc1c[nH]c2ccccc12)C(=O)N[C@H](CC(N)=O)C(=O)N[C@@H](CC(=O)O)C(=O)N[C@@H]1C(=O)NCC(=O)N[C@@H](CCCN)C(=O)N[C@@H](CC(=O)O)C(=O)N[C@H](C)C(=O)N[C@@H](CC(=O)O)C(=O)NCC(=O)N[C@H](CO)C(=O)N[C@@H]([C@H](C)CC(=O)O)C(=O)N[C@@H](CC(=O)c2ccccc2N)C(=O)O[C@@H]1C [Daptomycin] showed a time to kill (MRSA USA300 [3]) of 2 h.
